Laboratory results: ChEMBL document CHEMBL6115007, “Synthesis and in vitro and in vivo evaluation of novel bivalent quinolines as antitumor agents via targeting autophagy in cervical cancer” (Eur J Med Chem, 2025)
Calls of active or inactive are those of the source. No cut-off for these calls is given here.

Columns and labels:
A549 = experiment: Antiproliferative activity against human A549 cells assessed as reduction in cell optical density incubated for 48 hrs by MTT assay; type: functional, cell-based; settings: A549, 48 h
SiHa [1] = experiment: Antiproliferative activity against human SiHa cells assessed as inhibition of cell viability incubated for 24 hrs by CCK8 assay; type: functional, cell-based
SiHa [2] = experiment: Inhibition of colony formation in human SiHa cells assessed as reduction in colony forming unit count at 0.1 to 0.4 uM incubated for 24 hrs by crystal violet staining based analysis; type: functional, cell-based; settings: dose 0.1-0.4 µM
Ca-Ski [3] = experiment: Inhibition of cell migration in human Ca Ski cells at 0.5 to 1.0 uM measured after 48 hrs by cell scratch assay; type: functional, cell-based; settings: dose 0.5-1 µM
HeLa [4] = experiment: Inhibition of cell migration in human HeLa cells at 0.6 to 1.2 uM measured after 24 hrs by transwell migration assay; type: functional, cell-based; settings: dose 0.6-1.2 µM
HeLa [5] = experiment: Induction of morphological changes in human HeLa cells assessed as decrease in cell adherence to culture dish at 0.6 to 2.4 uM by microphotographic analysis; type: functional, cell-based; settings: dose 0.6-2.4 µM
Ca-Ski [6] = experiment: Induction of morphological changes in human Ca Ski cells assessed as decrease in cell adherence to culture dish at 0.5 to 2 uM by microphotographic analysis; type: functional, cell-based; settings: dose 0.5-2 µM
HeLa [7] = experiment: Induction of apoptosis in human HeLa cells assessed as late apoptotic cells at 0.6 uM incubated for 24 hrs by Annexin V-FITC/PI staining based flow cytometric analysis (reference value: 0.94 %); type: functional
HeLa [8] = experiment: Induction of apoptosis in human HeLa cells assessed as late apoptotic cells at 1.2 uM incubated for 24 hrs by Annexin V-FITC/PI staining based flow cytometric analysis (reference value: 0.94 %); type: functional
HeLa [9] = experiment: Induction of apoptosis in human HeLa cells assessed as early apoptotic cells at 0.6 uM preincubated with Z-VAD-FMK for 1 hrs followed by compound addition and measured after 24 hrs by Annexin V-FITC/PI staining based flow cytometric analysis (reference value: 0.96 %); type: functional
Ca-Ski [10] = experiment: Induction of apoptosis in human Ca Ski cells assessed as viable cells at 0.5 uM incubated for 24 hrs by Annexin V-FITC/PI staining based flow cytometric analysis (reference value: 86.8 %); type: functional; settings: read-out: Activity
Ca-Ski [11] = experiment: Induction of apoptosis in human Ca Ski cells assessed as necrotic cells at 0.5 uM incubated for 24 hrs by Annexin V-FITC/PI staining based flow cytometric analysis (reference value: 3.15 %); type: functional
Ca-Ski [12] = experiment: Induction of apoptosis in human Ca Ski cells assessed as early apoptotic cells at 1 uM incubated for 24 hrs by Annexin V-FITC/PI staining based flow cytometric analysis (reference value: 4.76 %); type: functional
Ca-Ski [13] = experiment: Induction of apoptosis in human Ca Ski cells assessed as late apoptotic cells at 0.5 uM preincubated with Z-VAD-FMK for 1 hrs followed by compound addition and measured after 24 hrs by Annexin V-FITC/PI staining based flow cytometric analysis (reference value: 5.30 %); type: functional
Ca-Ski [14] = experiment: Effect on cleaved PARP expression level in human Ca Ski cells at 0.25 to 1 uM incubated for 24 hrs by Western blot analysis; type: functional, cell-based; settings: dose 0.25-1 µM
Ca-Ski [15] = experiment: Effect on caspase 3 expression level in human Ca Ski cells at 0.25 to 1 uM incubated for 24 hrs by Western blot analysis; type: functional, cell-based; settings: dose 0.25-1 µM
HeLa [16] = experiment: Antiproliferative activity against p53 deficient human HeLa cells assessed as inhibition of cell viability incubated for 24 hrs by CCK8 assay; type: functional, cell-based
HeLa [17] = experiment: Antiproliferative activity against Bax deficient human HeLa cells assessed as inhibition of cell viability incubated for 24 hrs by CCK8 assay; type: functional, cell-based
HeLa [18] = experiment: Effect on PARP expression level in Bax deficient human HeLa cells at 0.6 to 1.2 uM incubated for 24 hrs by Western blot analysis; type: functional, cell-based; settings: dose 0.6-1.2 µM
Ca-Ski [19] = experiment: Effect on cleaved PARP expression level in p53 deficient human Ca Ski cells at 0.5 to 1 uM incubated for 24 hrs by Western blot analysis; type: functional, cell-based; settings: dose 0.5-1 µM
HeLa [20] = experiment: Effect on GPX4 protein expression level in human HeLa cells at 0.6 uM incubated for 24 hrs by Western blot analysis; type: functional, cell-based
Ca-Ski [21] = experiment: Effect on GPX4 protein expression level in human Ca Ski cells at 0.5 uM incubated for 24 hrs by Western blot analysis; type: functional, cell-based
HeLa [22] = experiment: Induction of autophagy in human HeLa cells transfected with mRFP-GFP-LC3 plasmid assessed as stable RFP fluorescence at 0.4 to 0.8 uM incubated for 24 hrs by DAPI staining based fluorescence confocal microscopic analysis; type: functional, cell-based; settings: dose 0.4-0.8 µM
Ca-Ski [23] = experiment: Induction of autophagy in human Ca Ski cells transfected with mRFP-GFP-LC3 plasmid assessed as appearance of RFP puncta clusters as aggregates in cytoplasm at 0.3 to 0.6 uM incubated for 24 hrs by DAPI staining based fluorescence confocal microscopic analysis; type: functional, cell-based; settings: dose 0.3-0.6 µM
HeLa [24] = experiment: Induction of autophagy in human HeLa cells assessed as increase in LC3-I conversion to LC3-II at 0.3 to 1.2 microM incubated for 24 hrs by Western blot analysis; type: functional, cell-based; settings: dose 0.3-1.2 µM
Ca-Ski [25] = experiment: Induction of autophagy in human Ca Ski cells assessed as increase in LC3-II accumulation at 0.5 uM incubated for 3 to 48 hrs by Western blot analysis; type: functional, cell-based; settings: time 3-48 hrs
HeLa [26] = experiment: Upregulation of autophagy pathway related gene expression in human HeLa cells at 1.2 uM incubated for 24 hrs by heat-map analysis; type: functional, cell-based
HeLa [27] = experiment: Induction of autophagy pathway in human HeLa cells at 1.2 uM incubated for 24 hrs by GSEA analysis; type: functional, cell-based
HeLa [28] = experiment: Induction of autophagy in human HeLa cells assessed as increase in ATG5 protein level at 0.6 to 1.2 uM incubated for 24 hrs by Western blot analysis; type: functional, cell-based; settings: dose 0.6-1.2 µM
HeLa [29] = experiment: Induction of autophagy in human HeLa cells assessed as increase in ATG7 protein level at 0.6 to 1.2 uM incubated for 24 hrs by Western blot analysis; type: functional, cell-based; settings: dose 0.6-1.2 µM
HeLa [30] = experiment: Effect on Beclin1 protein level in human HeLa cells at 0.6 to 1.2 uM incubated for 24 hrs by Western blot analysis; type: functional, cell-based; settings: dose 0.6-1.2 µM
HeLa [31] = experiment: Antitumor activity against human HeLa cells xenografted in female BALB/c mouse assessed as inhibition of tumor progression at 4 to 8 mg/kg administered every four days and measured after 26 days by imaging analysis; type: functional, organism-based; settings: dose 4-8 mg/kg, time 26.0 day
HeLa [32] = experiment: Antitumor activity against human HeLa cells xenografted in female BALB/c mouse assessed as reduction in tumor weight at 8 mg/kg administered every four days and measured after 26 days relative to control; type: functional; design: scale not given: the % may be the effect or the level left; settings: time 26 day
HeLa [33] = experiment: Induction of autophagy in human HeLa cells transfected with mRFP-GFP-LC3 plasmid assessed as appearance of RFP puncta clusters as aggregates in cytoplasm at 30 uM incubated for 24 hrs by DAPI staining based fluorescence confocal microscopic analysis; type: functional, cell-based
Ca-Ski [34] = experiment: Induction of autophagy in human Ca Ski cells transfected with mRFP-GFP-LC3 plasmid assessed as appearance of RFP puncta clusters as aggregates in cytoplasm at 25 uM incubated for 24 hrs by DAPI staining based fluorescence confocal microscopic analysis; type: functional, cell-based

Question: Which IC50 (A549) does the source give for `COc1cccc(Nc2ccnc3cc(OCCCCCOc4ccc5c(Nc6cccc(OC)c6)ccnc5c4)ccc23)c1` here?
Answer: 2750 nM

Question: And the Activity (SiHa [1])?
Answer: Dose-dependent-effect

Question: And the IC50 (SiHa [1])?
Answer: 1450 nM

Question: What about the inhibition (SiHa [2]) of the same compound?
Answer: Active

Question: And the inhibition (Ca-Ski [3])?
Answer: Active

Question: What about the inhibition (HeLa [4]) of the same compound?
Answer: Active

Question: And the Activity (HeLa [5])?
Answer: Active

Question: What about the Activity (Ca-Ski [6]) of the same compound?
Answer: Active

Question: And the Activity (HeLa [7])?
Answer: 2.27%

Question: What about the Activity (HeLa [8]) of the same compound?
Answer: 4.11%

Question: What about the Activity (HeLa [9]) of the same compound?
Answer: 1.31%

Question: What about the viability at 0.5 µM (Ca-Ski [10]) of the same compound?
Answer: 85.5%

Question: And the Activity (Ca-Ski [11])?
Answer: 0.64%

Question: And the Activity (Ca-Ski [12])?
Answer: 7.2%

Question: And the Activity (Ca-Ski [13])?
Answer: 17.3%

Question: And the Activity (Ca-Ski [14])?
Answer: inactive

Question: What about the Activity (Ca-Ski [15]) of the same compound?
Answer: inactive

Question: And the IC50 (HeLa [16])?
Answer: 1110 nM

Question: What about the IC50 (HeLa [17]) of the same compound?
Answer: 1320 nM

Question: And the Activity (HeLa [18])?
Answer: inactive

Question: And the Activity (Ca-Ski [19])?
Answer: inactive

Question: What about the Activity (HeLa [20]) of the same compound?
Answer: Moderate_effect

Question: And the Activity (Ca-Ski [21])?
Answer: Moderate_effect

Question: And the Activity (HeLa [22])?
Answer: Active

Question: What about the Activity (Ca-Ski [23]) of the same compound?
Answer: Active

Question: What about the Activity (HeLa [24]) of the same compound?
Answer: Active

Question: And the Activity (Ca-Ski [25])?
Answer: Active

Question: What about the Activity (HeLa [26]) of the same compound?
Answer: Active

Question: What about the Activity (HeLa [27]) of the same compound?
Answer: Active

Question: And the Activity (HeLa [28])?
Answer: Active

Question: And the Activity (HeLa [29])?
Answer: Active

Question: And the Activity (HeLa [30])?
Answer: inactive

Question: What about the Activity (HeLa [31]) of the same compound?
Answer: Active

Question: And the Activity (HeLa [32])?
Answer: 81.76%

Question: And the Activity (HeLa [33])?
Answer: Active

Question: What about the Activity (Ca-Ski [34]) of the same compound?
Answer: Active
